Source: ChEMBL document CHEMBL5375955, “Discovery of New Fusobacterium nucleatum Inhibitors to Attenuate Migratory Capability of Colon Cancer Cells by the Drug Repositioning Strategy” (J Med Chem, 2023)
Values after ≈ are worked out from the molar mass of the structure shown. Active and inactive are the calls of the source. The calls are words filed in the database; no cut-off is given here.

Key:
[1] = Acute toxicity in po dosed ICR mouse assessed as spleen damage at 1500 mg/kg, po measured after 7 days by H and E staining based analysis; assay type: organism-based; settings: in vivo, 168 h, time 7 day
Staphylococcus aureus = assay: Antibacterial activity against Staphylococcus aureus ATCC 6538 assessed as bacterial growth inhibition incubated for 48 hrs by broth dilution susceptibility test; assay type: functional
Akkermansia muciniphila = assay: Antibacterial activity against Akkermansia muciniphila ATCC BAA-835 assessed as bacterial growth inhibition incubated for 48 hrs by broth dilution susceptibility test; assay type: functional
[2] = system: Salmonella enterica subsp. enterica serovar Paratyphi B; assay: Antibacterial activity against Salmonella paratyphi B ATCC CMCC50094 assessed as bacterial growth inhibition incubated for 48 hrs by broth dilution susceptibility test; assay type: functional
[3] = Acute toxicity in po dosed ICR mouse assessed as animal death measured after 7 days; assay type: organism-based; settings: in vivo, time 7 day
L02 = assay: Downregulation of HPPD gene expression in human L02 cells at 10 to 50 uM incubated for 48 hrs by RT-qPCR analysis; assay type: functional, cell-based; settings: dose 10-50 µM
[4] = Acute toxicity in po dosed ICR mouse assessed as heart damage at 1500 mg/kg, po measured after 7 days by H and E staining based analysis; assay type: organism-based; settings: in vivo, 168 h, time 7 day
[5] = Cytotoxicity against human L02 cells assessed as inhibition of cell growth incubated for 48 hrs by CCK-8 assay; assay type: toxicity, cell-based
HCT-116 = assay: Antiproliferative activity against human HCT-116 cells assessed as inhibition of cell growth incubated for 48 hrs by CCK-8 assay; assay type: functional, cell-based; settings: HCT-116, 48 h
Escherichia coli = assay: Antibacterial activity against Escherichia coli […] assessed as bacterial growth inhibition incubated for 48 hrs by broth dilution susceptibility test; assay type: functional
Fusobacterium nucleatum [6] = assay: Antibiofilm activity against Fusobacterium nucleatum ATCC 23726 assessed as inhibition of biofilm formation incubated for 48 hrs by crystal violet staining based assay; assay type: functional, organism-based; settings: dose 0.5-16 µg/ml
[7] = Acute toxicity in po dosed ICR mouse assessed as kidney damage at 1500 mg/kg, po measured after 7 days by H and E staining based analysis; assay type: organism-based; settings: in vivo, 168 h, time 7 day
MC-38 [8] = assay: Antiproliferative activity against mouse MC-38 cells assessed as inhibition of cell growth incubated for 48 hrs by CCK-8 assay; assay type: functional, cell-based; settings: MC-38, 48 h
Fusobacterium nucleatum [9] = assay: Inhibition of Fusobacterium nucleatum ATCC 23726 stimulated mouse MC-38 cell migration assessed as reduction in number of migrating cells at 2 to 4 ug/ml incubated for 48 hrs by crystal violet staining based transwell assay; assay type: functional; settings: dose 2-4 µg/ml
[10] = system: Peptostreptococcus anaerobius; assay: Antibacterial activity against Peptostreptococcus anaerobius ATCC 27337 assessed as bacterial growth inhibition incubated for 48 hrs by broth dilution susceptibility test; assay type: functional
Fusobacterium nucleatum [11] = assay: Antibiofilm activity against Fusobacterium nucleatum ATCC 23726 assessed as downregulation of tnaA gene expression measured after 48 hrs by RT-qPCR analysis; assay type: functional, organism-based
MC-38 [12] = assay: Potency index, ratio of nitisinone IC50 to test compound IC50 for antiproliferative activity against mouse MC-38 cells assessed as inhibition of cell growth incubated for 48 hrs by CCK-8 assay; assay type: functional
[13] = Metabolic stability in mouse liver microsomes assessed as half life at 1 uM incubated for 45 mins in presence of NADPH by LC-MS/MS analysis; assay type: ADME, Microsome
Fusobacterium nucleatum [14] = assay: Antibacterial activity against Fusobacterium nucleatum ATCC 23726 assessed as bacterial growth inhibition incubated for 72 hrs by turbidimeter analysis; assay type: functional, organism-based
Shigella flexneri = assay: Antibacterial activity against Shigella flexneri ATCC 12022 assessed as bacterial growth inhibition incubated for 48 hrs by broth dilution susceptibility test; assay type: functional
[15] = Half life in Sprague-Dawley rat at 1 mg/kg, iv measured upto 24 hrs by LC-MS/MS analysis; assay type: ADME, organism-based; settings: in vivo
Fusobacterium nucleatum [16] = assay: Antibacterial activity against Fusobacterium nucleatum ATCC 23726 assessed as bacterial growth inhibition at 4 ug/ml incubated for 72 hrs by turbidimeter analysis; assay type: functional, organism-based; settings: dose 4.0 µg/ml
[17] = Acute toxicity in ICR mouse assessed as death rate at 2160 mg/kg, po measured after 7 days; assay type: organism-based; settings: in vivo, time 7 day, read-out: Activity
[18] = Clearance in Sprague-Dawley rat at 1 mg/kg, iv measured upto 24 hrs by LC-MS/MS analysis; assay type: ADME, organism-based; settings: in vivo
Fusobacterium nucleatum [19] = assay: Antibacterial activity against Fusobacterium nucleatum ATCC 23726 assessed as bacterial growth inhibition incubated for 48 hrs by broth dilution susceptibility test; assay type: functional
[20] = Cmax in Sprague-Dawley rat at 1 mg/kg, iv measured upto 24 hrs by LC-MS/MS analysis; assay type: ADME, organism-based; parameters: dose 1 mg/kg, time < 24 hrs, route iv; settings: in vivo
Fusobacterium nucleatum [21] = assay: Antibiofilm activity against Fusobacterium nucleatum ATCC 23726 assessed as inhibition of biofilm formation at 1 ug/ml incubated for 48 hrs by crystal violet staining based assay relative to control; assay type: functional
[22] = Tmax in Sprague-Dawley rat at 20 mg/kg, po measured upto 24 hrs by LC-MS/MS analysis; assay type: ADME, organism-based; settings: in vivo
Enterococcus faecalis = assay: Antibacterial activity against Enterococcus faecalis ATCC 29212 assessed as bacterial growth inhibition incubated for 48 hrs by broth dilution susceptibility test; assay type: functional
Fusobacterium nucleatum [23] = assay: Antibacterial activity against Fusobacterium nucleatum ATCC 23726 assessed as downregulation of NTR gene expression incubated for 48 hrs by RT-qPCR analysis; assay type: functional, organism-based
[24] = system: Lactobacillus acidophilus; assay: Antibacterial activity against Lactobacillus acidophilus ATCC CGMCC 1.577 assessed as bacterial growth inhibition incubated for 48 hrs by broth dilution susceptibility test; assay type: functional
[25] = Oral bioavailability in Sprague-Dawley rat at 20 mg/kg measured upto 24 hrs by LC-MS/MS analysis; assay type: ADME, organism-based; settings: in vivo
[26] = Acute toxicity in po dosed ICR mouse assessed as lung damage at 1500 mg/kg, po measured after 7 days by H and E staining based analysis; assay type: organism-based; settings: in vivo, 168 h, time 7 day
[27] = Cytotoxicity against HUVEC cells assessed as inhibition of cell growth incubated for 48 hrs by CCK-8 assay; assay type: toxicity, cell-based; settings: human
[28] = Acute toxicity in po dosed ICR mouse assessed as liver damage at 1500 mg/kg, po measured after 7 days by H and E staining based analysis; assay type: organism-based; settings: in vivo, 168 h, time 7 day
[29] = Drug metabolism assessed as NTR(unknown origin)-mediated metabolism at 10 mM incubated for 2 hrs in presence of NADH by LC-MS analysis; assay type: ADME; settings: bacteria, 10000 µM
[30] = Acute toxicity in ICR mouse assessed as death rate at 2592 mg/kg, po measured after 7 days; assay type: organism-based; settings: in vivo, time 7 day, read-out: Activity

Compound: O=C(NCc1ccc(Br)nc1)c1ccc([N+](=O)[O-])o1
- Activity [1]: Non-Toxic
- MIC50 (Staphylococcus aureus): > 64 µg/mL
- MIC50 (Akkermansia muciniphila): > 64 µg/mL
- MIC50 [2]: > 64 µg/mL
- LD50 at 168 h [3]: 2400 mg/kg
- Activity (L02): Active
- Activity [4]: Non-Toxic
- IC50 at 48 h [5]: 16 µM
- IC50 (HCT-116): 32 µM
- MIC50 (Escherichia coli): > 64 µg/mL
- inhibition (Fusobacterium nucleatum [6]): Dose-Dependent Effect
- Activity [7]: Non-Toxic
- IC50 (MC-38 [8]): 11 µM
- inhibition (Fusobacterium nucleatum [9]): Active
- MIC50 [10]: 64 µg/mL (≈ 196 µM)
- Activity (Fusobacterium nucleatum [11]): Dose-Dependent Effect
- Ratio IC50 (MC-38 [12]): 8
- half-life at 1 µM [13]: 25.1 min
- Activity (Fusobacterium nucleatum [14]): Dose-Dependent Effect
- MIC50 (Shigella flexneri): 64 µg/mL (≈ 196 µM)
- half-life [15]: ~4.08 min
- Activity (Fusobacterium nucleatum [16]): Active
- mortality at 168 h [17]: 20%
- clearance [18]: 601 mL/min/kg
- MIC50 (Fusobacterium nucleatum [19]): 1 µg/mL (≈ 3.07 µM)
- MIC90 (Fusobacterium nucleatum [19]): 4 µg/mL (≈ 12.3 µM)
- Cmax [20]: 85 ng/mL
- inhibition at 1 µg/mL (Fusobacterium nucleatum [21]): > 50%
- Tmax [22]: 1.4 h
- MIC50 (Enterococcus faecalis): > 64 µg/mL
- Activity (Fusobacterium nucleatum [23]): Dose-Dependent Effect
- MIC50 [24]: 64 µg/mL (≈ 196 µM)
- bioavailability [25]: 4.2%
- Activity [26]: Non-Toxic
- IC50 at 48 h [27]: 16 µM
- Activity [28]: Non-Toxic
- Drug metabolism [29]: Metabolite_Detected
- mortality at 168 h [30]: 70%
